Results as given in paper PMC7287908, “N-Alkyl-2-[4-(trifluoromethyl)benzoyl]hydrazine-1-carboxamides and Their Analogues: Synthesis and Multitarget Biological Activity” (Molecules, 2020).
Converted amounts (≈) assume the structure as drawn. Where two headings read alike, the source gives them in different places.

Assays:
[1] = target: T1, AChE from electric eel (EeAChE) (Electrophorus electricus, UniProt O42275); assay: biochemical; settings: for IC50: electric eel AChE, mean ± SD, n = three independent experiments; for Selectivity BuChE/AChE (selectivity index, SI): ratio of IC50 for BuChE/IC50 for AChE
T1 construct: Acetylcholinesterase used was obtained from electric eel (Electrophorus electricus L; EeAChE); purchased Sigma-Aldrich (Prague, Czech Republic); host or cells: electric eel (natural source)
Procedure: (§1) Newly synthesized N-alkyl-2-[4-(trifluoromethyl)benzoyl]hydrazine-1-carboxamides 2a–2q were evaluated for their in vitro potency to inhibit AChE from electric eel (EeAChE) and BuChE from equine serum (EqBuChE) using modified Ellman’s spectrophotometric method. […] The efficacy of inhibitors is expressed as IC50, i.e., the concentration causing 50% inhibition of the enzyme activity. Based on IC50 values for both enzymes, selectivity indexes (SI) as the ratio of IC50 for BuChE/IC50 for AChE to quantify the preference for AChE were calculated (Table 1).
(§2) IC50 values were determined using the spectrophotometric Ellman’s method modified according to Zdražilová et al., which is a simple, rapid and direct method to determine the SH and -S-S- group content. This method is widely used for the screening of the efficiency of cholinesterases inhibitors. The enzymatic activity is measured indirectly by quantifying the concentration of the 5-thio-2-nitrobenzoic acid ion formed in the reaction between the thiol reagent 5,5′-dithio-bis(2-nitrobenzoic acid) and thiocholine, a product of acetylthiocholine substrate hydrolysis by cholinesterases.
(§3) The enzyme activity in final reaction mixture (2000 µL) was 0.2 U/mL, concentration of acetylthiocholine (or butyrylthiocholine) 40 µM and concentration of 5,5′-dithio-bis(2-nitrobenzoic acid) 0.1 mM for all reactions. The tested compounds were dissolved in DMSO and then diluted in demineralized water to the concentration of 1 mM. […] All measurements were carried in triplicates and the average values of reaction rate (v0-uninhibited reaction, vi-inhibited reaction) were used for construction of the dependence v0/vi vs. concentration of inhibitor. From obtained equation of regression curve, IC50 values were calculated.
(§4) Acetylcholinesterase used was obtained from electric eel (Electrophorus electricus L.; EeAChE) and butyrylcholinesterase from equine serum (EqBuChE).

[2] = target: T2, BuChE from equine serum (EqBuChE) (Equus caballus, UniProt P81908); assay: biochemical; settings: mean ± SD, n = three independent experiments
T2 construct: butyrylcholinesterase from equine serum (EqBuChE); purchased Sigma-Aldrich (Prague, Czech Republic); host or cells: equine serum (natural source)
Procedure: as §1, §2, §3, §4

[3] = test system: Mycobacterium tuberculosis 331/88 (H37Rv); assay: In vitro antimycobacterial activity (MIC); type: cell-based; settings: read-out: MIC M. tuberculosis
[4] = test system: M. kansasii 235/80 and M. kansasii 6509/96; assay: In vitro antimycobacterial activity (MIC); type: cell-based; settings: Mycobacterium kansasii, read-out: MIC M. kansasii
HepG2 cells = assay: Cytostatic activity, MTT assay; type: cell-based, human; settings: HepG2, at a concentration of 100 µM
Procedure: (§5) Since compounds containing trifluoromethyl group has been known for their toxic action on eukaryotic cells and approved as anticancer drugs, we investigated cytostatic properties of the derivatives 2–4 using human hepatocellular carcinoma (HepG2) and monocyte (MonoMac6) cell lines. […] The remaining compounds have no cytostatic effect up to 50 µM. Higher concentrations were not investigated due to solubility problems, i.e., precipitation of crystals. […]
(§6) The cell viability was determined by 3-(4,5-dimethylthiazol-2-yl)-2,5-diphenyltetrazolium bromide (MTT) assay. […] The obtained formazan crystals were dissolved in 100 μL of DMSO and the optical density (OD) of the samples was measured at λ = 540 and 620 nm, respectively, employing an ELISA reader (iEMS Reader, Labsystems, Helsinki, Finland). OD620 values were subtracted from OD540 values and the percent of cytostasis was calculated using the following equation:Cytostatic effect (%) = [1 − (ODtreated/ODcontrol)] × 100 where ODtreated and ODcontrol correspond to the optical densities of the treated and the control cells, respectively). […]

MonoMac6 cells = assay: Cytostatic activity, MTT assay; type: cell-based, human; settings: MonoMac6, at a concentration of 100 µM
Procedure: as §5, §6

[5] = test system: M. tuberculosis 331/88, M. avium 330/88, M. kansasii 235/80, M. kansasii 6509/96; assay: In vitro antimycobacterial activity (MIC), whole panel, strain not specified; type: cell-based; settings: panel of four mycobacterial strains; read-out: MIC (mycobacteria, strain not specified)

T2 sequence (P81908 whole entry): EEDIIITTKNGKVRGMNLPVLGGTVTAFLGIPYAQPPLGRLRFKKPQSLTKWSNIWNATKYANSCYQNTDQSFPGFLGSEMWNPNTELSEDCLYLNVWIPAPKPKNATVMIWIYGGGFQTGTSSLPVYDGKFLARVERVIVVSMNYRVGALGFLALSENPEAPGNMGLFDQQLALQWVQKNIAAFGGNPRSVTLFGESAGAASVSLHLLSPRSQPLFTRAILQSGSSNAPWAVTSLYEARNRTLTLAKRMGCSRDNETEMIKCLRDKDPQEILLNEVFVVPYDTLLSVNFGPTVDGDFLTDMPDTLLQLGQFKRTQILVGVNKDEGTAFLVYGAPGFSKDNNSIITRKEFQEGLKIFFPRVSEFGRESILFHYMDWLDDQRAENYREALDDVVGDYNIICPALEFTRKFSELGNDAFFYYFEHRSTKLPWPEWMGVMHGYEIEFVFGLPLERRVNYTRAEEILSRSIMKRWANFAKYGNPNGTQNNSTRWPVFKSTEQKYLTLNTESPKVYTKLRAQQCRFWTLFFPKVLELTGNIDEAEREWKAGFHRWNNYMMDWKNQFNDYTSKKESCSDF
T1 sequence (O42275 24-633): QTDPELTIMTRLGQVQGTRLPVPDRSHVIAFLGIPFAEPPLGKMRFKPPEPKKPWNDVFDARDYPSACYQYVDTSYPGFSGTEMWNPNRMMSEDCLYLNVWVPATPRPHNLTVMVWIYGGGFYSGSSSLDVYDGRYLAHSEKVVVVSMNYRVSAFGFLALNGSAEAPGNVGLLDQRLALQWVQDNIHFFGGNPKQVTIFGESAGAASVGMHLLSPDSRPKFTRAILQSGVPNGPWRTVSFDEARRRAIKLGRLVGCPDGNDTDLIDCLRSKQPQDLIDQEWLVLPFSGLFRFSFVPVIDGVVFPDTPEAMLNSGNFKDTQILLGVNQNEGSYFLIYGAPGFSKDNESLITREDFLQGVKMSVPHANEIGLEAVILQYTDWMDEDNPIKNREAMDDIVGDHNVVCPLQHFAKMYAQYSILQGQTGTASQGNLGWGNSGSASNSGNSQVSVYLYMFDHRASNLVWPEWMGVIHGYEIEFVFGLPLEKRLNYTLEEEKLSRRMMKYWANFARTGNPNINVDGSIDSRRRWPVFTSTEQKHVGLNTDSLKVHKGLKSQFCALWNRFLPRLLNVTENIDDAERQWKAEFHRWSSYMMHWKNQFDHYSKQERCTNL

With `CCCCCCCCCCCCCCCNC(=O)NNC(=O)c1ccc(C(F)(F)F)cc1` [2o, N-Pentadecyl-2-[4-(trifluoromethyl)benzoyl]hydrazine-1-carboxamide] the IC50 ([1]; read-out: IC50 AChE) was 27 µM, the “Selectivity BuChE/AChE (selectivity index, SI)” value [1] was 8.6 and the IC50 ([2]; read-out: IC50 BuChE) was 233 ± 15.7 µM.
In the case of `CCCCCCCNC(=O)NNC(=O)c1ccc(C(F)(F)F)cc1` [2g, N-Heptyl-2-[4-(trifluoromethyl)benzoyl]hydrazine-1-carboxamide], the IC50 ([1]; read-out: IC50 AChE) is reported as 59.2 ± 2.38 µM, the “Selectivity BuChE/AChE (selectivity index, SI)” value [1] is reported as 1.3 and the IC50 ([2]; read-out: IC50 BuChE) is reported as 79.3 ± 1.53 µM.
With `CNC(=O)NNC(=O)c1ccc(C(F)(F)F)cc1` [2a, N-Methyl-2-[4-(trifluoromethyl)benzoyl]hydrazine-1-carboxamide] the MIC ([3]; H37RV) was 1000 µM (≈ 261 µg/mL), the IC50 ([1]; IC50 AChE) was 31.2 ± 1.87 µM and the “Selectivity BuChE/AChE (selectivity index, SI)” value [1] was 2.7. For the same compound, the IC50 ([2]; IC50 BuChE) was 84.2 ± 2.1 µM and the MIC [4] was 1000 µM (≈ 261 µg/mL).
With `NNC(=O)c1ccc(C(F)(F)F)cc1` [compound 1, 4-(Trifluoromethyl)benzohydrazide] the IC50 ([2]; IC50 BuChE) was 204 ± 2.69 µM, the cytostatic action (HepG2 cells) was “avoided any cytostatic action” and the cytostatic action (MonoMac6 cells) was “avoided any cytostatic action”.
`CCCCCCNC(=O)NNC(=O)c1ccc(C(F)(F)F)cc1` [2f, N-Hexyl-2-[4-(trifluoromethyl)benzoyl]hydrazine-1-carboxamide] was tested, and the MIC ([3]; H37RV) was 250 µM (≈ 82.8 µg/mL), the IC50 ([1]; read-out: IC50 AChE) was 49.2 ± 2.36 µM and the “Selectivity BuChE/AChE (selectivity index, SI)” value [1] was 1.5. It also gave an IC50 ([2]; read-out: IC50 BuChE) of 72.5 ± 1.51 µM and an MIC [4] of 250 µM (≈ 82.8 µg/mL).
`CCCNC(=O)NNC(=O)c1ccc(C(F)(F)F)cc1` [2c, N-Propyl-2-[4-(trifluoromethyl)benzoyl]hydrazine-1-carboxamide] was tested, and the IC50 ([1]; read-out: IC50 AChE) was 82.3 ± 3.31 µM and the IC50 ([2]; read-out: IC50 BuChE) was 112.7 ± 0.98 µM.
In the case of `CCCCCC(=O)NNC(=O)c1ccc(C(F)(F)F)cc1` [3a, N′-Hexanoyl-4-(trifluoromethyl)benzohydrazide], the MIC ([3]; H37RV) is reported as 125 µM (≈ 37.8 µg/mL), the IC50 ([1]; read-out: IC50 AChE) is reported as 67.1 ± 3.05 µM and the “Selectivity BuChE/AChE (selectivity index, SI)” value [1] is reported as 1.6. For the same compound, the IC50 ([2]; read-out: IC50 BuChE) was 110 ± 0.2 µM and the MIC [4] was > 250 µM.
In the case of `CCCCCCCCCNC(=O)NNC(=O)c1ccc(C(F)(F)F)cc1` [2i, N-Nonyl-2-[4-(trifluoromethyl)benzoyl]hydrazine-1-carboxamide], the IC50 ([1]; read-out: IC50 AChE) is reported as 107 µM, the “Selectivity BuChE/AChE (selectivity index, SI)” value [1] is reported as 0.8 and the IC50 ([2]; read-out: IC50 BuChE) is reported as 82.2 ± 3.42 µM.
`CCCCCCCCCCCCCCNC(=O)NNC(=O)c1ccc(C(F)(F)F)cc1` [2n, N-Tetradecyl-2-[4-(trifluoromethyl)benzoyl]hydrazine-1-carboxamide] was tested, and the IC50 ([1]; read-out: IC50 AChE) was 38.7 ± 1.14 µM, the “Selectivity BuChE/AChE (selectivity index, SI)” value [1] was 6.8 and the IC50 ([2]; read-out: IC50 BuChE) was 262 ± 17.2 µM.
`CCCCCCCCCCCNC(=O)NNC(=O)c1ccc(C(F)(F)F)cc1` [2k, 2-[4-(Trifluoromethyl)benzoyl]-N-undecylhydrazine-1-carboxamide] was tested, and the IC50 ([1]; read-out: IC50 AChE) was 40.71 ± 0.37 µM, the “Selectivity BuChE/AChE (selectivity index, SI)” value [1] was 4.4 and the IC50 ([2]; read-out: IC50 BuChE) was 179 ± 2.96 µM.
For `CCNC(=O)NNC(=O)c1ccc(C(F)(F)F)cc1` [2b, N-Ethyl-2-[4-(trifluoromethyl)benzoyl]hydrazine-1-carboxamide], the MIC ([3]; H37RV) was 1000 µM (≈ 275 µg/mL), the IC50 ([1]; read-out: IC50 AChE) was 56.32 ± 0.54 µM and the “Selectivity BuChE/AChE (selectivity index, SI)” value [1] was 1.8. It also gave an IC50 ([2]; read-out: IC50 BuChE) of 103 ± 2.75 µM and an MIC [4] of 1000 µM (≈ 275 µg/mL).
`CCCCCCCCCCCCCCCCCCNC(=O)NNC(=O)c1ccc(C(F)(F)F)cc1` [2q, N-Octadecyl-2-[4-(trifluoromethyl)benzoyl]hydrazine-1-carboxamide] was tested, and the IC50 ([1]; read-out: IC50 AChE) was 72.3 ± 2.01 µM, the “Selectivity BuChE/AChE (selectivity index, SI)” value [1] was 2.0 and the IC50 ([2]; read-out: IC50 BuChE) was 146 ± 2.6 µM.
In the case of `CCCCNC(=O)NNC(=O)c1ccc(C(F)(F)F)cc1` [2d, N-Butyl-2-[4-(trifluoromethyl)benzoyl]hydrazine-1-carboxamide], the IC50 ([1]; read-out: IC50 AChE) is reported as 38.6 ± 1.32 µM, the “Selectivity BuChE/AChE (selectivity index, SI)” value [1] is reported as 2.3 and the IC50 ([2]; read-out: IC50 BuChE) is reported as 87.8 ± 7.96 µM.
For `CCCCCCCCCCCCNC(=O)NNC(=O)c1ccc(C(F)(F)F)cc1` [2l, N-Dodecyl-2-[4-(trifluoromethyl)benzoyl]hydrazine-1-carboxamide], the IC50 ([1]; read-out: IC50 AChE) was 45.2 ± 0.69 µM, the “Selectivity BuChE/AChE (selectivity index, SI)” value [1] was 5.8 and the IC50 ([2]; read-out: IC50 BuChE) was 264.14 ± 0.22 µM.
`CCCCCCNc1nnc(-c2ccc(C(F)(F)F)cc2)o1` [compound 4, N-Hexyl-5-[4-(trifluoromethyl)phenyl]-1,3,4-oxadiazol-2-amine] was tested, and the MIC ([3]; H37RV) was 125 to 250 µM (≈ 39.2 to 78.3 µg/mL), the MIC [5] was ≥ 62.5 µM and the IC50 ([1]; read-out: IC50 AChE) was 71.32 ± 0.63 µM. The “Selectivity BuChE/AChE (selectivity index, SI)” value [1] was 1.7, the IC50 ([2]; read-out: IC50 BuChE) was 118 ± 1.46 µM and the MIC [4] was 62.5 to 250 µM (≈ 19.6 to 78.3 µg/mL).
For `CCCCCCCCNC(=O)NNC(=O)c1ccc(C(F)(F)F)cc1` [2h, N-Octyl-2-[4-(trifluoromethyl)benzoyl]hydrazine-1-carboxamide], the IC50 ([1]; read-out: IC50 AChE) was 77 ± 4.75 µM, the “Selectivity BuChE/AChE (selectivity index, SI)” value [1] was 1.3 and the IC50 ([2]; read-out: IC50 BuChE) was 101.3 ± 0.99 µM.
`CCCCCCCCCCCCCCCC(=O)NNC(=O)c1ccc(C(F)(F)F)cc1` [3b, N′-Palmitoyl-4-(trifluoromethyl)benzohydrazide] was tested, and the IC50 ([1]; read-out: IC50 AChE) was 91.9 ± 6.79 µM, the “Selectivity BuChE/AChE (selectivity index, SI)” value [1] was 1.6 and the IC50 ([2]; read-out: IC50 BuChE) was 148.6 ± 0.36 µM.
With `CCCCCNC(=O)NNC(=O)c1ccc(C(F)(F)F)cc1` [2e, N-Pentyl-2-[4-(trifluoromethyl)benzoyl]hydrazine-1-carboxamide] the IC50 ([1]; read-out: IC50 AChE) was 43.59 ± 0.41 µM, the “Selectivity BuChE/AChE (selectivity index, SI)” value [1] was 1.3 and the IC50 ([2]; read-out: IC50 BuChE) was 58 µM.
For `CCCCCCCCCCCCCNC(=O)NNC(=O)c1ccc(C(F)(F)F)cc1` [2m, N-Tridecyl-2-[4-(trifluoromethyl)benzoyl]hydrazine-1-carboxamide], the IC50 ([1]; IC50 AChE) was 28.9 ± 0.67 µM, the “Selectivity BuChE/AChE (selectivity index, SI)” value [1] was 9.6 and the IC50 ([2]; IC50 BuChE) was 278 µM. For the same compound, the IC50 ([2]; read-out: IC50 BuChE) was 277 ± 10.3 µM.
In the case of `CCCCCCCCCCNC(=O)NNC(=O)c1ccc(C(F)(F)F)cc1` [2j, N-Decyl-2-[4-(trifluoromethyl)benzoyl]hydrazine-1-carboxamide], the IC50 ([1]; read-out: IC50 AChE) is reported as 49.5 ± 1.74 µM, the “Selectivity BuChE/AChE (selectivity index, SI)” value [1] is reported as 3.9 and the IC50 ([2]; read-out: IC50 BuChE) is reported as 192 ± 6.83 µM.
For `CCCCCCCCCCCCCCCCNC(=O)NNC(=O)c1ccc(C(F)(F)F)cc1` [2p, N-Hexadecyl-2-[4-(trifluoromethyl)benzoyl]hydrazine-1-carboxamide], the IC50 ([1]; read-out: IC50 AChE) was 68.63 ± 0.56 µM, the “Selectivity BuChE/AChE (selectivity index, SI)” value [1] was 2.7 and the IC50 ([2]; read-out: IC50 BuChE) was 187 ± 13.2 µM.
With `NNC(=O)c1ccncc1` [isoniazid, isonicotinoylhydrazide, reference compound] the MIC ([3]; M. tuberculosis 331/88 (H37Rv)) was 1 µM (≈ 0.137 µg/mL).
